What all share (type): in vitro ADME
The test system of data set [1] is rat hepatocytes. Description: Metabolic stability in rat hepatocytes. The procedure: Compound solubilization: Stock solutions were made in DMSO, and working solutions in William medium containing 1/10 rat plasma or 1/4 human plasma.
Metabolic stability determination: Compounds were incubated at 10^−7 M with isolated hepatocytes (6E+5 cells/ml for rat hepatocytes and 4E+5 cells/ml for human hepatocytes) at 37° C. in plasma from the same species diluted in Wiliams medium (1/10 dilution for rat and 1/4 dilution for human). Sampling times were performed at 0, 10, 20, 30, 60 and 120 min and enzymatic reaction stopped with methanol (v/v). Proteins were precipitated by centrifugation and the supernatant was analyzed by LC/MS/MS. Clint expressed as ml/min/g protein were calculated as for hepatic microsomes using a ratio of 0.134 mg protein/ml for 4E+5 cells/ml for human and 0.201 mg protein/ml for 6E+5 cells/ml for rat. The presence of the reference drug and the potential metabolite was checked by LC/MS/MS during the assay in each sample.

Data set [2] is described as follows: Metabolic stability in rat hepatic microsomes (Clint, predicted MF %). As for the experimental part:
Compound solubilization: Stock solutions were made in DMSO, and working solutions in water containing 1 mg/ml BSA.
Prediction of metabolic bioavailability: Metabolic bioavailability predictions (MF %) were based on in vitro metabolic stability measurements with hepatic microsomes assuming total absorption. Briefly, unchanged drugs were quantified by LC-MS-MS following incubation (10^−7M) with rat and human hepatic microsomes (0.33 mg protein/ml) after 0, 5, 15, 30 and 60 min of incubation in presence of NADPH (1 mM). Enzymatic reaction was stopped with methanol (v/v) and proteins were precipitated by centrifugation. The in vitro intrinsic clearances (Clint_mic) expressed as ml/min/g protein were the slope (after LN linearization) of the unchanged drug remaining concentration versus incubation time. In vitro Clint were then scaled up to in vivo whole body (vivoClint) using 0.045 mg prot/kg of liver and liver weight of 11 g for the rat and 1.2 kg for Man.

Data set [3] can be described thus: Metabolic stability in rat microsomes (% remaining). As for the experimental part:
(§1) 0.1M Tris HCl buffer at pH 7.4 containing 5 mM EDTA.
(§2) To a 50 mL falcon tube containing 2.79 mL of dilution buffer were added 0.429 mL of NADPH-regenerating soln. A and 0.079 mL of NADPH-regenerating soln. B […]
(§3) […] A 50 mL falcon tube containing 3.32 mL of dilution buffer was prewarmed at 37° C. for 15 min. (at least 10 min.) 0.178 mL of microsome (24.6 mg/mL) were added to the prewarmed dilution buffer. The protein concentration of this microsome preparation was 1.25 mg/mL.
(§4) Sample (Test Compound)—Original and Intermediate Stock Solutions:
(§5) 100 μM intermediate solution of the test compound from the original stock solution were prepared using the dilution buffer. A 5 μM solution was prepared by diluting the 100 μM intermediate solution using dilution buffer.
(§6) (The experiments were conducted in 1.5 mL eppendorf micro centrifuge tubes) 0 minutes incubation. Procedure: a. Add 100 μL of prewarmed microsomes b. Add 50 μL of 5 μM solution of the test compound. c. Add 500 μL of cold stop solution (ice cold Methanol) d. Add 100 μL of NADPH cofactor solution to the eppendorf. a. Vortex mix the eppendorf. […]
(§7) b. Add 100 μL of NADPH cofactor solution to the eppendorf. c. Add 50 μL of 5 μM solution of the test compound. d. Add 100 μL of prewarmed microsomes e. Incubate the eppendorf at 37° C. 300 rpm for ‘t’ min. on a thermomixer. f. Remove the eppendorf from thermomixer g. Add 500 μL of cold stop solution (ice cold Methanol) h. Vortex mix the eppendorf.
(§8) Both the ‘0’ and ‘t’ minutes incubated samples were centrifuged at 15, 000 rcf at 4° C. for 15 min. 500 μL of the supernatant solution was removed and subject it to LC/MS analysis (SIM—Selected Ion Monitoring) […]
(§9) Results are expressed as % test compound remaining=(MS Area response of T min sample/MS Area response of ‘0’ min sample)*100. The MS area used is an average of duplicate injections.
(§10) Time points=0, 15, 30 and 60 min. for each test compound
(§11) 2 μM Imipramine—5 min. and 2 μM Imipramine—15 min. incubation was used as a positive control for the rat and mouse liver microsome stability experiments.

Data set [4] in a line: Metabolic stability in mouse microsomes (% remaining). As for the experimental part:
as §1, §2, §3, §4, §5, §6, §7, §8, §9, §10, §11

In data set [1], `COc1ccc2c(c1)CN(Cc1ccc(C(=O)O)cc1)CCS2` [Compound 1, 4-((7-Methoxy-2,3-dihydrobenzo[f][1,4]thiazepin-4(5H)-yl)methyl)benzoic acid] yielded an MF rat % of 90%. Further, the Clint in data set [1] (6.00E+05 cells/ml, 10^-7 M) is listed as 5 ml/min/gprot. In data set [2], the “Class (metabolic bioavailability)” value is recorded as “Inter- mediate”. Besides, the “Clint_mic rat (in vitro intrinsic clearance)” value in data set [2] (10^-7 M, 0.33 mg protein/ml, NADPH) is reported as 101 ml/min/gprot. Also, the “MF mic % (metabolic bioavailability)” value in data set [2] (predicted from Clint assuming total absorption) was 30%. Besides, the “% remaining” value in data set [3] (15 min) came out at 54%; in data set [3] (30 min), 17%; in data set [3] (1 h) it was 2%; in data set [4] (15 min), 99%; in data set [4] (30 min), 98%; in data set [4] (1 h), 82%.
